The record followed here is US20070004660A1, “Synergistic Modulation of Flt3 Kinase Using Alkylquinolines and Alkylquinazolines” (priority 2005, published 2007).

Structures are written as SMILES. Counter-ions that a name gives are not always drawn.

The test deals with T1, wild-type FLT3 receptor (Homo sapiens, UniProt P36888).
T1 construct: host or cells: Baf3 (murine B cell lymphoma line), stably transfected
T1 sequence (P36888 27-993): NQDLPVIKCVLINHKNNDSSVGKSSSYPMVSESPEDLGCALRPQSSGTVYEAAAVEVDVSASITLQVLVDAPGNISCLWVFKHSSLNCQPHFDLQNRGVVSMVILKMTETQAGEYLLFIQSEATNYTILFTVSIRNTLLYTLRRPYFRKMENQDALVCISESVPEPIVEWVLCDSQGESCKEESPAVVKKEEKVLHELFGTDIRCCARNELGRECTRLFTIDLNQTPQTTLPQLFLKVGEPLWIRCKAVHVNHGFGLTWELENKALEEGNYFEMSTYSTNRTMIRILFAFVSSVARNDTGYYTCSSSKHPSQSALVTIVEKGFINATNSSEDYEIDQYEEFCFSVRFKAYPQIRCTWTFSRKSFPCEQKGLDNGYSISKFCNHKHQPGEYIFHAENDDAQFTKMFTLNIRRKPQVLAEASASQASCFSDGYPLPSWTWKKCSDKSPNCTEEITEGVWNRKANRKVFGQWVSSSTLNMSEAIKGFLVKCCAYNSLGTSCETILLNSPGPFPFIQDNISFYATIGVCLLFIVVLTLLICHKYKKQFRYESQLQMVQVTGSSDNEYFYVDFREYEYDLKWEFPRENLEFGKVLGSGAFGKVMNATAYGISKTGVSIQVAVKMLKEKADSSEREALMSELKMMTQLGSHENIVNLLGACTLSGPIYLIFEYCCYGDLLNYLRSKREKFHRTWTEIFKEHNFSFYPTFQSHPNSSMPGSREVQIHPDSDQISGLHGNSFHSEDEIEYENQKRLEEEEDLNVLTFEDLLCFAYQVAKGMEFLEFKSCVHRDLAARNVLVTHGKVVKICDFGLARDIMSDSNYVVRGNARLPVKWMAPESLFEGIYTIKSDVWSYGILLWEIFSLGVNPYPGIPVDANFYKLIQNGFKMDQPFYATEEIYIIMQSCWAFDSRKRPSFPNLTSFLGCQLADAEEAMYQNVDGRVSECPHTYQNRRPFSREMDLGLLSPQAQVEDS
Nature of the test: Cell-based FLT3 receptor ELISA (FLT ligand-induced phosphorylation in Baf3 FLT3 cells). The following applies: 100 ng/mL Flt ligand, uncertainty ±20%. An outline of the steps:
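Receptor phosphotyrosine measured by sandwich ELISA (anti-FLT3 capture, HRP anti-pTyr, luminescence) in FLT3-transfected murine Baf3 cells given 1 h compound pretreatment and 10 min 100 ng/mL FLT ligand after overnight low-serum starvation; triplicates, IC50 from nonlinear regression.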
Broadly, the IC50 is the concentration needed to halve the response being measured. Lower therefore signals higher potency. Take `CS(=O)(=O)N1CCN(CCCOc2ccc3c(C4CCN(C(=O)Nc5ccc(N6CCCC6)cc5)CC4)ncnc3c2)CC1` [Example 164, 4-{7-[3-(4-Methanesulfonyl-piperazin-1-yl)-propoxy]-quinazolin-4-yl}-piperidine-1-carboxylic acid (4-pyrrolidin-1-yl-phenyl)-amide]: 11 nM corresponded to half-maximal inhibition (IC50).
The molecule `O=C(Nc1ccc(N2CCCC2)cc1)N1CCC(c2ncnc3cc(OCCO)ccc23)CC1` [Example 169, 4-[7-(2-Hydroxy-ethoxy)-quinazolin-4-yl]-piperidine-1-carboxylic acid (4-pyrrolidin-1-yl-phenyl)-amide] displayed an IC50 of 2 nM.
For `O=C(Nc1ccc(N2CCCC2)cc1)N1CCC(c2ncnc3cc(OCC4CCOCC4)ccc23)CC1` [Compound 188, 4-[7-(Tetrahydro-pyran-4-ylmethoxy)-quinazolin-4-yl]-piperidine-1-carboxylic acid (4-pyrrolidin-1-yl-phenyl)-amide] the value was 93 nM; for `O=C(Nc1ccc(N2CCCC2)cc1)N1CCC(c2ncnc3cc(NCCO)ccc23)CC1` [Example 175, 4-[7-(2-Hydroxy-ethylamino)-quinazolin-4-yl]-piperidine-1-carboxylic acid (4-pyrrolidin-1-yl-phenyl)-amide], 6 nM.
For `O=C(Nc1ccc(N2CCCC2)cc1)N1CCC(c2ncnc3cc(N4CCN(c5ccncc5)CC4)ccc23)CC1` [Compound 194, 4-[7-(4-Pyridin-4-yl-piperazin-1-yl)-quinazolin-4-yl]-piperidine-1-carboxylic acid (4-pyrrolidin-1-yl-phenyl)-amide] the value was 11 nM.
Next, `COc1cc2ncnc(C3CCN(C(=O)Nc4ccc(OC(C)C)cc4)CC3)c2cc1OC` [Example 1, 4-(6,7-Dimethoxy-quinazolin-4-yl)-piperidine-1-carboxylic acid (4-isopropoxy-phenyl)-amide hydrochloride]: 17 nM; `CC(=O)N1CC(Oc2ccc3c(C4CCN(C(=O)Nc5ccc(N6CCCC6)cc5)CC4)ncnc3c2)C1` [Example 170, 4-[7-(1-Acetyl-azetidin-3-yloxy)-quinazolin-4-yl]-piperidine-1-carboxylic acid (4-pyrrolidin-1-yl-phenyl)-amide]: 4 nM.
Molecule `CCN1CCN(c2ccc3c(C4CCN(C(=O)Nc5ccc(N6CCCC6)cc5)CC4)ncnc3c2)CC1` [Compound 187, 4-[7-(4-Ethyl-piperazin-1-yl)-quinazolin-4-yl]-piperidine-1-carboxylic acid (4-pyrrolidin-1-yl-phenyl)-amide] yielded an IC50 of 12 nM.
For `CN(C)[C@@H]1CCN(c2ccc3c(C4CCN(C(=O)Nc5ccc(N6CCCC6)cc5)CC4)ncnc3c2)C1` [Example 149, (R)-4-[7-(3-Dimethylamino-pyrrolidin-1-yl)-quinazolin-4-yl]-piperidine-1-carboxylic acid (4-pyrrolidin-1-yl-phenyl)-amide], the half-inhibitory concentration (IC50) turned out to be 3 nM.
Turning to `CN1CCN(CCCOc2ccc3c(C4CCN(C(=O)Nc5ccc(N6CCCC6)cc5)CC4)ncnc3c2)CC1` [Example 158, 4-{7-[3-(4-Methyl-piperazin-1-yl)-propoxy]-quinazolin-4-yl}-piperidine-1-carboxylic acid (4-pyrrolidin-1-yl-phenyl)-amide], the IC50 was found to be 0.4 nM.
For `O=C(Nc1ccc(N2CCCC2)cc1)N1CCC(c2ncnc3cc(N4CCC(F)CC4)ccc23)CC1` [Compound 195, 4-[7-(4-Fluoro-piperidin-1-yl)-quinazolin-4-yl]-piperidine-1-carboxylic acid (4-pyrrolidin-1-yl-phenyl)-amide] the value was 81 nM; for `COCCN1CCN(c2ccc3c(C4CCN(C(=O)Nc5ccc(N6CCCC6)cc5)CC4)ncnc3c2)CC1` [Compound 186, 4-{7-[4-(2-Methoxy-ethyl)-piperazin-1-yl]-quinazolin-4-yl}-piperidine-1-carboxylic acid (4-pyrrolidin-1-yl-phenyl)-amide], 3 nM.
For `CC(C)c1ccc(NC(=O)CN2CCC(c3ncnc4ccccc34)CC2)cc1` [Example 16, N-(4-Isopropyl-phenyl)-2-(4-quinazolin-4-yl-piperidin-1-yl)-acetamide] the value was 336 nM.
As for `COc1cc2ncnc(C3CCN(C(=O)Nc4ccc(N5CCCCC5)cc4)CC3)c2cc1OC` [Example 19, 4-(6,7-Dimethoxy-quinazolin-4-yl)-piperidine-1-carboxylic acid (4-piperidin-1-yl-phenyl)-amide], it took 17 nM to reach half-maximal inhibition (IC50).
For `O=C(Nc1ccc(N2CCCC2)cc1)N1CCC(c2ncnc3cc(N4CCCC4)ccc23)CC1` [Compound 179, 4-(7-Pyrrolidin-1-yl-quinazolin-4-yl)-piperidine-1-carboxylic acid (4-pyrrolidin-1-yl-phenyl)-amide] the value was 49 nM; for `O=C(Nc1ccc(N2CCOCC2)cc1)N1CCC(c2ncnc3cc(N4CCC[C@H]4CO)ccc23)CC1` [Example 139, (S)-4-[7-(2-Hydroxymethyl-pyrrolidin-1-yl)-quinazolin-4-yl]-piperidine-1-carboxylic acid (4-morpholin-4-yl-phenyl)-amide], 211 nM.
`CCNC(=O)N1CCN(c2ccc3c(C4CCN(C(=O)Nc5ccc(N6CCCC6)cc5)CC4)ncnc3c2)CC1` [Compound 199, 4-{4-[1-(4-Pyrrolidin-1-yl-phenylcarbamoyl)-piperidin-4-yl]-quinazolin-7-yl}-piperazine-1-carboxylic acid ethylamide]: 40 nM corresponded to half-maximal inhibition (IC50).
For the molecule `O=C(Nc1ccc(N2CCOCC2)cc1)N1CCC(c2ncnc3cc(N4CCNC4=O)ccc23)CC1` [Compound 197, 4-[7-(2-Oxo-imidazolidin-1-yl)-quinazolin-4-yl]-piperidine-1-carboxylic acid (4-morpholin-4-yl-phenyl)-amide], half-maximal inhibition (IC50) was put at 78 nM.
For `CCN(CC)CCCOc1ccc2c(C3CCN(C(=O)Nc4ccc(N5CCOCC5)cc4)CC3)ncnc2c1` [Example 134, 4-[7-(3-Diethylamino-propoxy)-quinazolin-4-yl]-piperidine-1-carboxylic acid (4-morpholin-4-yl-phenyl)-amide], it took 31 nM to reach half-maximal inhibition (IC50).
Next, `O=C(Nc1ccc(N2CCOCC2)cc1)N1CCC(c2ncnc3cc(N4CCC(F)CC4)ccc23)CC1` [Compound 196, 4-[7-(4-Fluoro-piperidin-1-yl)-quinazolin-4-yl]-piperidine-1-carboxylic acid (4-morpholin-4-yl-phenyl)-amide]: 3 nM.
In turn, `O=C(Nc1ccc(N2CCCC2)cc1)N1CCC(c2ncnc3cc(Oc4cccnc4)ccc23)CC1` [Example 174, 4-[7-(Pyridin-3-yloxy)-quinazolin-4-yl]-piperidine-1-carboxylic acid (4-pyrrolidin-1-yl-phenyl)-amide] displayed an IC50 of 130 nM.
As to `O=C(Nc1ccc(N2CCCC2)cc1)N1CCC(c2ncnc3cc(N4CCSCC4)ccc23)CC1` [Compound 182, 4-(7-Thiomorpholin-4-yl-quinazolin-4-yl)-piperidine-1-carboxylic acid (4-pyrrolidin-1-yl-phenyl)-amide], the IC50 is 24 nM.
Next, `CN1CCCN(c2ccc3c(C4CCN(C(=O)Nc5ccc(N6CCOCC6)cc5)CC4)ncnc3c2)CC1` [Example 138, 4-[7-(4-Methyl-[1,4]diazepan-1-yl)-quinazolin-4-yl]-piperidine-1-carboxylic acid (4-morpholin-4-yl-phenyl)-amide]: 107 nM; `O=C(Nc1ccc(N2CCCC2)cc1)N1CCC(c2ncnc3cc(N4CCN(CCO)CC4)ccc23)CC1` [Compound 185, 4-{7-[4-(2-Hydroxy-ethyl)-piperazin-1-yl]-quinazolin-4-yl}-piperidine-1-carboxylic acid (4-pyrrolidin-1-yl-phenyl)-amide]: 1 nM.
For `CNC(=O)C1CCN(c2ccc3c(C4CCN(C(=O)Nc5ccc(N6CCCC6)cc5)CC4)ncnc3c2)CC1` [Example 155, 4-[7-(4-Carboxylic acid methylamide-piperidin-1-yl)-quinazolin-4-yl]-piperidine-1-carboxylic acid (4-pyrrolidin-1-yl-phenyl)-amide] the value was 0.4 nM; for `CN1CCN(CCOc2ccc3c(C4CCN(C(=O)Nc5ccc(N6CCOCC6)cc5)CC4)ncnc3c2)CC1` [Example 156, 4-{7-[2-(4-Methyl-piperazin-1-yl)-ethoxy]-quinazolin-4-yl}-piperidine-1-carboxylic acid (4-morpholin-4-yl-phenyl)-amide], 32 nM.
